Data as given in ChEMBL document CHEMBL4334523, “Enzymatic Preparation of 2'-5',3'-5'-Cyclic Dinucleotides, Their Binding Properties to Stimulator of Interferon Genes Adaptor Protein, and Structure/Activity Correlations” (J Med Chem, 2019).

Tests used:
[1] = target: T1, Stimulator of interferon genes protein (Homo sapiens, UniProt Q86WV6)
Description: Binding affinity to recombinant human wild-type STING assessed as change in melting temperature at 150 uM by SYPRO orange dye based differential scanning fluorimetric method

[2] = target: Stimulator of interferon genes protein (Homo sapiens, UniProt Q86WV6, G230A/R293Q); assay: Activation of recombinant human STING haplotype G230A/R293Q mutant expressed in 293T cells measured after 30 mins in presence of digitonin A by bright Glo-luciferase reporter gene assay; assay type: cell-based
Chain of Stimulator of interferon genes protein (Homo sapiens, UniProt Q86WV6, G230A/R293Q) (Q86WV6 whole entry G230A/R293Q): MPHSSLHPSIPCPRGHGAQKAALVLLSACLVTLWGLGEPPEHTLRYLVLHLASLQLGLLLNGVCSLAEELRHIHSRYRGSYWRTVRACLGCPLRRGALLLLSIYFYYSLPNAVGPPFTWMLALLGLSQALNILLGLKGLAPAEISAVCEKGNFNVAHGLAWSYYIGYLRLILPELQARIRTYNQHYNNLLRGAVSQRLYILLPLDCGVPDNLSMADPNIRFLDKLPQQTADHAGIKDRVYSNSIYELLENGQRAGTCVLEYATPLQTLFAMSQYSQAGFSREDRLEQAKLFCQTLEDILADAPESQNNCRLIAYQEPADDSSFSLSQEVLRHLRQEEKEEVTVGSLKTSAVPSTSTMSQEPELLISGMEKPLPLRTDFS

Homo sapiens = species on record: Homo sapiens; assay type: cell-based
[3] = Cytotoxicity against human PBMC-derived CD3-positive T cells assessed as effect on cell viability at 12.5 uM incubated for 16 hrs by Zombie-NIR staining-based flow cytometry
cells = conditions: Homo sapiens, HEK-293T, 0.5 h
Description: Activation of recombinant human STING haplotype R232H mutant expressed in 293T cells measured after 30 mins in presence of digitonin A by bright Glo-luciferase reporter gene assay

[4] = target: Stimulator of interferon genes protein (Homo sapiens, UniProt Q86WV6, G230A/R293Q/R71H); assay: Activation of recombinant human STING haplotype R71H/G230A/R293Q mutant expressed in 293T cells measured after 30 mins in presence of digitonin A by bright Glo-luciferase reporter gene assay; assay type: cell-based
Chain of Stimulator of interferon genes protein (Homo sapiens, UniProt Q86WV6, G230A/R293Q/R71H) (Q86WV6 whole entry R71H/G230A/R293Q): as the sequence (Q86WV6 whole entry G230A/R293Q) above, with R71H counted along it

Monocyte = assay: Cytotoxicity against human PBMC-derived monocytes assessed as CD3-negative CD14 positive monocyte viability at 12.5 uM incubated for 16 hrs by Zombie-NIR staining-based flow cytometry relative to control; assay type: functional
[5] = target: T1, Stimulator of interferon genes protein; assay: Activation of recombinant human wild-type STING expressed in 293T cells incubated for 7 hrs in absence of digitonin A by bright Glo-luciferase reporter gene assay; assay type: cell-based
[6] = target: T1, Stimulator of interferon genes protein; assay: Activation of recombinant human wild-type STING expressed in 293T cells measured after 30 mins in presence of digitonin A by bright Glo-luciferase reporter gene assay; assay type: cell-based
[7] = target: Stimulator of interferon genes protein (Homo sapiens, UniProt Q86WV6, R293Q); assay: Activation of recombinant human STING haplotype R293Q mutant expressed in 293T cells measured after 30 mins in presence of digitonin A by bright Glo-luciferase reporter gene assay; assay type: cell-based
Chain of Stimulator of interferon genes protein (Homo sapiens, UniProt Q86WV6, R293Q) (Q86WV6 whole entry R293Q): as the sequence (Q86WV6 whole entry G230A/R293Q) above, with A230G counted along it

T1 sequence (Q86WV6 whole entry): as the sequence (Q86WV6 whole entry G230A/R293Q) above, with A230G, Q293R counted along it

Row | ΔTm [1] [°C] | EC50 [2] [nM] | EC50 (cells) [nM] | EC50 [4] [nM] | EC50 [5] [nM] | EC50 [6] [nM] | EC50 [7] [nM] | SMILES | max activation (Homo sapiens) [%] | Activity [3] | Activity (Monocyte) [%]
1 | 9 | 40 | 900 | 40 | 40000 | 20 | 780 | Cn1c(N)nc2c(ncn2[C@@H]2O[C@@H]3COP(=O)(O)O[C@H]4[C@@H](O)[C@H](n5cnc6c(N)ncnc65)O[C@@H]4COP(=O)(O)O[C@@H]2[C@@H]3O)c1=O | < 30 | Non-Toxic | 2
2 | 9.5 | 90 | 4700 | 80 | 58200 | 70 | 960 | Nc1nc2c(ncn2[C@@H]2O[C@@H]3COP(=O)(O)O[C@H]4C[C@H](n5cnc6c(N)nc(Cl)nc65)O[C@@H]4COP(=O)(O)O[C@@H]2[C@@H]3O)c(=O)[nH]1 | < 30 | Non-Toxic | 0.1
3 | 6.6 | 60 | 3500 | 100 | 40400 | 40 | 1100 | Nc1nc2c(ccn2[C@@H]2O[C@@H]3COP(=O)(O)O[C@H]4[C@@H](O)[C@H](n5cnc6c(N)ncnc65)O[C@@H]4COP(=O)(O)O[C@@H]2[C@@H]3O)c(=O)[nH]1 | < 30 | Non-Toxic | 0.9
4 | 2.8 | 50 | 6000 | 250 | 241000 | 110 | 3000 | Nc1nc2c([C@@H]3O[C@@H]4COP(=O)(O)O[C@H]5[C@@H](O)[C@H](n6cnc7c(N)ncnc76)O[C@@H]5COP(=O)(O)O[C@@H]3[C@@H]4O)scc2c(=O)[nH]1 | < 30 | Non-Toxic | 0.9
5 | 8.3 | 60 | 2300 | 60 | 13300 | 10 | 1230 | CSc1ncnc2c1ncn2[C@@H]1O[C@@H]2COP(=O)(O)O[C@@H]3[C@H](O)[C@@H](COP(=O)(O)O[C@H]2[C@H]1O)O[C@H]3n1cnc2c(=O)[nH]c(N)nc21 | < 30 | Non-Toxic | 0.4
6 | 1.7 | 210 | > 45000 | 210 | > 300000 | 320 | 45300 | NC(=O)c1ncn([C@@H]2O[C@@H]3COP(=O)(O)O[C@@H]4[C@H](O)[C@@H](COP(=O)(O)O[C@H]3[C@H]2O)O[C@H]4n2cnc3c(=O)[nH]c(N)nc32)c1N | < 30 | Non-Toxic | 83
7 | 0.6 | 420 | > 45000 | 400 | > 300000 | 830 | 47200 | NC(=O)c1ncn([C@@H]2O[C@@H]3COP(=O)(O)O[C@H]4[C@@H](O)[C@H](n5cnc6c(N)ncnc65)O[C@@H]4COP(=O)(O)O[C@@H]2[C@@H]3O)c1N | < 30 | Non-Toxic | 87
8 | 2.4 | 2000 | 20900 | 1700 | > 300000 | 1800 | 32800 | Nc1nc2c(ncn2[C@@H]2O[C@@H]3COP(=O)(O)O[C@H]4[C@@H](O)[C@H](n5cnc6c(O)nc(O)nc65)O[C@@H]4COP(=O)(O)O[C@@H]2[C@@H]3O)c(=O)[nH]1 | < 30 | Non-Toxic | 45
9 | 8.8 | 140 | 2100 | 300 | 149000 | 50 | 2200 | Nc1nc2c(ncn2[C@@H]2O[C@@H]3COP(=O)(O)O[C@H]4[C@@H](O)[C@H](n5cnc6c(=O)[nH]cnc65)O[C@@H]4COP(=O)(O)O[C@@H]2[C@@H]3O)c(=O)[nH]1 | < 30 | Non-Toxic | 17
10 | 3.9 | 210 | 34200 | 310 | > 300000 | 230 | 5720 | Nc1nc2c(ncn2[C@@H]2O[C@@H]3COP(=O)(O)O[C@H]4[C@@H](O)[C@H](n5nnc6c(N)ncnc65)O[C@@H]4COP(=O)(O)O[C@@H]2[C@@H]3O)c(=O)[nH]1 | < 30 | Non-Toxic | 2.3
11 | 9.4 | 20 | 1400 | 30 | 108000 | 20 | 240 | Nc1nc2c(ncn2[C@@H]2O[C@@H]3COP(=O)(O)O[C@H]4[C@@H](N)[C@H](n5cnc6c(N)ncnc65)O[C@@H]4COP(=O)(O)O[C@@H]2[C@@H]3O)c(=O)[nH]1 | < 30 | Non-Toxic | 3
12 | 7.3 | 150 | 1700 | 200 | 182000 | 300 | 8300 | Nc1nc2c(ncn2[C@@H]2O[C@@H]3COP(=O)(O)O[C@H]4[C@@H](O)[C@H](n5cnc6c(=S)[nH]cnc65)O[C@@H]4COP(=O)(O)O[C@@H]2[C@@H]3O)c(=O)[nH]1 | < 30 | Non-Toxic | 10
13 | 14.4 | 30 | 170 | 40 | 27600 | 20 | 130 | Nc1nc(N)c2ncn([C@@H]3O[C@@H]4COP(=O)(O)O[C@@H]5[C@H](O)[C@@H](COP(=O)(O)O[C@H]4[C@H]3F)O[C@H]5n3cnc4c(=O)[nH]c(N)nc43)c2n1 | < 30 | Non-Toxic | 2.5
14 | 12.3 | 60 | 6400 | 100 | 187000 | 200 | 600 | Nc1nc2c(ncn2[C@@H]2O[C@@H]3COP(=O)(O)O[C@H]4[C@H](O)[C@H](n5cnc6c(N)nc(F)nc65)O[C@@H]4COP(=O)(O)O[C@@H]2[C@@H]3O)c(=O)[nH]1 | < 30 | Non-Toxic | 3
15 | 9.2 | 40 | 1600 | 40 | 53900 | 20 | 700 | Nc1ncc2ncn([C@@H]3O[C@@H]4COP(=O)(O)O[C@@H]5[C@H](O)[C@@H](COP(=O)(O)O[C@H]4[C@H]3O)O[C@H]5n3cnc4c(=O)[nH]c(N)nc43)c2n1 | < 30 | Non-Toxic | 0.6
16 | 9 | 60 | 700 | 60 | 63700 | 20 | 1200 | CNc1ncnc2c1ncn2[C@@H]1O[C@@H]2COP(=O)(O)O[C@@H]3[C@H](O)[C@@H](COP(=O)(O)O[C@H]2[C@H]1O)O[C@H]3n1cnc2c(=O)[nH]c(N)nc21 | < 30 | Non-Toxic | 0.8
